*1 amine or outer side, *2 acyl side, *3 side chain or, on linkers, in order; H or OH if unused. Where a SMILES comes first, the peptide text is derived from it. [ ]: non-standard residue; d: D form. Hexanoyl(5S-NH,4S-OH,6-Ph) = O=C(CC[C@H](O)[C@H](Cc1ccccc1)N[*:1])[*:2]; Glyψ(E-CHCH)Leu = CC(C)C[C@H](/C=C/CN[*:1])C(=O)[*:2]; X2 = O=C(/C=C/[C@@H](O)[C@H](Cc1ccccc1)N[*:1])[*:2]; X5 = O=C(/C=C/[C@H](O)[C@H](Cc1ccccc1)N[*:1])[*:2]; X3 = O=C(CC[C@@H](O)[C@H](Cc1ccccc1)N[*:1])[*:2]; X7 = O=C(C/C=C/[C@H](Cc1ccccc1)N[*:1])[*:2]; Phe(3-Me) = Cc1cccc(C[C@H](N)C(=O)O)c1; Phe(4-Me) = Cc1ccc(C[C@H](N)C(=O)O)cc1; Phe(2-Me) = Cc1ccccc1C[C@H](N)C(=O)O; Arg(Me) = CNC(=N)NCCC[C@H](N)C(=O)O; Dap(CONH2) = NC(=O)NC[C@H](N)C(=O)O; Ala(cPr) = N[C@@H](CC1CC1)C(=O)O; Hyp = O=C(O)[C@@H]1C[C@@H](O)CN1; αMeF = C[C@](N)(Cc1ccccc1)C(=O)O; Cha = N[C@@H](CC1CCCCC1)C(=O)O
Tested on: metastin receptors
Test: Measurement of agonist activity by assaying changes in intracellular calcium ion level (FLIPR, Fluo-4 NW)
Format: cell-based, human
Conditions: specific activity of the EC50 of a test compound based on the EC50 of Metastin (45-54), metastin receptor expression CHO cells
Experimental: 1) Preparation of Human Metastin and Rat Metastin Stable Expression Cell Lines
Human metastin and rat metastin stable expression cell lines were obtained by transfecting the expression plasmid for animal cells into CHO/dhfr^− cells using CellPhect Transfection Kit (manufactured by GE Healthcare). First, 240 μL of Buffer A (attached to CellPhect Transfection Kit) was added to 9.6 μg of plasmid DNA dissolved in 240 μL of distilled water followed by stirring. After the mixture was settled for 10 minutes, 480 μL of Buffer B (attached to CellPhect Transfection Kit) was added to the mixture, which was vigorously stirred to form liposomes containing the DNA. Then, 4×10^5 CHO/dhfr^− cells (obtained from ATCC) were inoculated on a 60 mm Petri dish. After culturing the cells in Ham's F-12 medium (manufactured by Nissui Seiyaku Co., Ltd.) supplemented with 10% fetal bovine serum (manufactured by BIO […], Inc.) at 37° C. for 2 days in 5% carbon dioxide gas, […] of the liposomes were dropwise added to the cells on the Petri dish. After culturing the cells in a CO2 incubator (5% CO2, 37° C.) for 6 hours, the cells were washed twice with serum-free Ham's F-12 medium and 3 mL of 15% glycerol was added to the cells on the Petri dish followed by treatment for 2 minutes. The cells were again washed twice with serum-free Ham's F-12 medium followed by incubation in Ham's F-12 medium supplemented with 10% fetal bovine serum in a CO2 incubator (5% CO2, 37° C.) for 15 hours. The cells were dispersed by trypsin treatment to recover from the Petri dish. The recovered cells were inoculated on a 6-well plate in 1.25×10^4 cells each/well and incubation was initiated in a CO2 incubator (5% CO2, 37° C.) in Dulbecco's modified Eagle medium (DMEM, manufactured by Nissui Seiyaku) containing 10% dialyzed fetal bovine serum (manufactured by JRH BIOSCIENCES, Inc.). The plasmid-transfected CHO transformants grew in the medium but the non-transfected cells gradually died, accordingly the medium was exchanged on Days 1 and 2 after the initiation of incubation to remove the dead cells. Approximately 20 colonies of the CHO transformants that kept growing on Days 8 to 10 after the incubation were isolated. From the cells in these colonies, cells showing high reactivity with the ligand peptide metastin (hereinafter merely referred to as h175 KB19 and h175 KB29 strains) were selected to provide for the following experiment.
Human metastin expression CHO cell line (h175 KB19 strain is described in a separate section) and rat metastin expression CHO cell line (h175 KB29 strain is described in a separate section) were seeded in a 96-well plate (type 3904, manufactured by Corning) at 3×10^4 cells/well, followed by incubation in a CO2 incubator (5% CO2, 37° C.) for 24 hours. For the medium, MEMα medium (nucleic acid-free, manufactured by Nikken Bio Medical Laboratory) supplemented with dialyzed 10% fetal bovine serum (manufactured by Thermo, MultiSer) was used.
3) Loading with Fluo-4 NW in Cells
As an assay buffer, 1× Hanks' balanced salt solution (HBSS, manufactured by GIBCO) supplemented with 0.1% BSA, 20 mM HEPES (pH 7.4, manufactured by GIBCO) and 1 mM Probenecid (manufactured by Molecular Probes) was prepared. The medium in the wells of the cell-seeded plate was removed and 100 μL each of the assay buffer (kept warm at 37° C.) was added to each well. After 10 mL of the assay buffer (the volume for assaying two plates) was charged in one Fluo-4NW dye mix (Component A, Fluo-4 NW calcium assay kit (starter pack), manufactured by Molecular Probes) bottle, the mixture was gently stirred to prepare the Fluo-4 NW loading solution. This loading solution was charged in each well by 50 μl each and reacted in a CO2 incubator (5% CO2, 37° C.) for 30 minutes for loading with Fluo-4 NW into the cells. Subsequently, the cells were settled at room temperature (25° C.) for 15 minutes and then used for assay.
4) Measurement of Agonist Activity […]

SMILES	Specific Activity
CNC(=N)NCCC[C@H](NC(=O)[C@H](CC(C)C)NC(=O)CNC(=O)[C@H](Cc1ccccc1)NC(=O)[C@@H](NC(=O)[C@H](CC(N)=O)NC(=O)[C@H](CCC(=O)O)NC(=O)[C@@H](Cc1ccc(O)cc1)NC(C)=O)[C@@H](C)O)C(=O)N[C@@H](Cc1c[nH]c2ccccc12)C(N)=O [Compound No. 852, des(1)-Ac-[D-Tyr2,Glu3,Thr5,Arg(Me)9,Trp10]MS10] (Ac-[dY]ENTFGL[Arg(Me)]W-NH2)	0.5
CNC(=N)NCCC[C@H](NC(=O)[C@H](CC(C)C)NC(=O)CNC(=O)[C@H](CC1CCCCC1)NC(=O)[C@@H](NC(=O)[C@H](CC(N)=O)NC(=O)[C@H](CCC(=O)O)NC(=O)[C@@H](Cc1ccc(O)cc1)NC(C)=O)[C@@H](C)O)C(=O)N[C@@H](Cc1c[nH]c2ccccc12)C(N)=O [Compound No. 853, des(1)-Ac-[D-Tyr2,Glu3,Thr5,Cha6,Arg(Me)9,Trp10]MS10] (Ac-[dY]ENT[Cha]GL[Arg(Me)]W-NH2)	0.6
CNC(=N)NCCC[C@H](NC(=O)[C@H](CC(C)C)NC(=O)CNC(=O)[C@H](CC1CC1)NC(=O)[C@@H](NC(=O)[C@H](CC(N)=O)NC(=O)[C@@H]1C[C@@H](O)CN1C(=O)[C@@H](Cc1ccc(O)cc1)NC(C)=O)[C@@H](C)O)C(=O)N[C@@H](Cc1c[nH]c2ccccc12)C(N)=O [Compound No. 855, des(1)-Ac-[D-Tyr2,Hyp3,Thr5,Ala(cPr)6,Arg(Me)9,Trp10]MS10] (Ac-[dY][Hyp]NT[Ala(cPr)]GL[Arg(Me)]W-NH2)	1.9
CNC(=N)NCCC[C@H](NC(=O)[C@H](CC(C)C)NC(=O)CC[C@H](O)[C@H](Cc1ccccc1)NC(=O)[C@@H](NC(=O)[C@H](CC(N)=O)NC(=O)[C@@H]1C[C@@H](O)CN1C(=O)[C@@H](Cc1ccc(O)cc1)NC(C)=O)[C@@H](C)O)C(=O)N[C@@H](Cc1c[nH]c2ccccc12)C(N)=O [Compound No. 857, des(1)-Ac-[D-Tyr2,Hyp3,Thr5,Phe6Ψ((S)CHOH—CH2)Gly7,Arg(Me)9,Trp10]MS10] (Ac-[dY][Hyp]NT[Hexanoyl(5S-NH,4S-OH,6-Ph)]L[Arg(Me)]W-NH2)	1.2
CNC(=N)NCCC[C@H](NC(=O)[C@H](CC(C)C)NC(=O)/C=C/[C@H](O)[C@H](Cc1ccccc1)NC(=O)[C@@H](NC(=O)[C@H](CC(N)=O)NC(=O)[C@@H]1C[C@@H](O)CN1C(=O)[C@@H](Cc1ccc(O)cc1)NC(C)=O)[C@@H](C)O)C(=O)N[C@@H](Cc1c[nH]c2ccccc12)C(N)=O [Compound No. 858, des(1)-Ac-[D-Tyr2,Hyp3,Thr5,Phe6Ψ((S)CHOH—(E)CH=)Gly7,Arg(Me)9,Trp10]MS10] (Ac-[dY][Hyp]NT[X5]L[Arg(Me)]W-NH2)	1.7
CNC(=N)NCCC[C@H](NC(=O)[C@H](CC(C)C)NC(=O)C/C=C/[C@H](Cc1ccccc1)NC(=O)[C@@H](NC(=O)[C@H](CC(N)=O)NC(=O)[C@@H]1C[C@@H](O)CN1C(=O)[C@@H](Cc1ccc(O)cc1)NC(C)=O)[C@@H](C)O)C(=O)N[C@@H](Cc1c[nH]c2ccccc12)C(N)=O [Compound No. 859, des(1)-Ac-[D-Tyr2,Hyp3,Thr5,Phe6Ψ((E)CH═CH)Gly7,Arg(Me)9,Trp10]MS10] (Ac-[dY][Hyp]NT[X7]L[Arg(Me)]W-NH2)	0.7
CNC(=N)NCCC[C@H](NC(=O)[C@H](CC(C)C)NC(=O)/C=C/[C@@H](O)[C@H](Cc1ccccc1)NC(=O)[C@@H](NC(=O)[C@H](CC(N)=O)NC(=O)[C@@H]1C[C@@H](O)CN1C(=O)[C@@H](Cc1ccc(O)cc1)NC(C)=O)[C@@H](C)O)C(=O)N[C@@H](Cc1c[nH]c2ccccc12)C(N)=O [Compound No. 866, des(1)-Ac-[D-Tyr2,Hyp3,Thr5,Phe6Ψ((R)CHOH—(E)CH=)Gly7,Arg(Me)9,Trp10]MS10] (Ac-[dY][Hyp]NT[X2]L[Arg(Me)]W-NH2)	1.4
CNC(=N)NCCC[C@H](NC(=O)[C@H](CC(C)C)NC(=O)CC[C@@H](O)[C@H](Cc1ccccc1)NC(=O)[C@@H](NC(=O)[C@H](CC(N)=O)NC(=O)[C@@H]1C[C@@H](O)CN1C(=O)[C@@H](Cc1ccc(O)cc1)NC(C)=O)[C@@H](C)O)C(=O)N[C@@H](Cc1c[nH]c2ccccc12)C(N)=O [Compound No. 867, des(1)-Ac-[D-Tyr2,Hyp3,Thr5,Phe6Ψ((R)CHOH—CH2)Gly7,Arg(Me)9,Trp10]MS10] (Ac-[dY][Hyp]NT[X3]L[Arg(Me)]W-NH2)	0.8
CNC(=N)NCCC[C@H](NC(=O)[C@H](CC(C)C)NC(=O)CNC(=O)[C@](C)(Cc1ccccc1)NC(=O)[C@@H](NC(=O)[C@H](CC(N)=O)NC(=O)[C@@H]1C[C@@H](O)CN1C(=O)[C@@H](Cc1ccc(O)cc1)NC(C)=O)[C@@H](C)O)C(=O)N[C@@H](Cc1c[nH]c2ccccc12)C(N)=O [Compound No. 869, des(1)-Ac-[D-Tyr2,Hyp3,Thr5,αMePhe6,Arg(Me)9,Trp10]MS10] (Ac-[dY][Hyp]NT[αMeF]GL[Arg(Me)]W-NH2)	3.8

Now from value to compound:

Specific Activity	SMILES
0.7	CNC(=N)NCCC[C@H](NC(=O)[C@H](CC(C)C)NC(=O)CNC(=O)[C@H](Cc1ccccc1C)NC(=O)[C@@H](NC(=O)[C@H](CC(N)=O)NC(=O)[C@@H]1C[C@@H](O)CN1C(=O)[C@@H](Cc1ccc(O)cc1)NC(C)=O)[C@@H](C)O)C(=O)N[C@@H](Cc1c[nH]c2ccccc12)C(N)=O [Compound No. 871, des(1)-Ac-[D-Tyr2,Hyp3,Thr5,Phe(2Me)6,Arg(Me)9,Trp10]MS10] (Ac-[dY][Hyp]NT[Phe(2-Me)]GL[Arg(Me)]W-NH2)
0.8	CNC(=N)NCCC[C@H](NC(=O)[C@H](CC(C)C)NC(=O)CNC(=O)[C@H](Cc1cccc(C)c1)NC(=O)[C@@H](NC(=O)[C@H](CC(N)=O)NC(=O)[C@@H]1C[C@@H](O)CN1C(=O)[C@@H](Cc1ccc(O)cc1)NC(C)=O)[C@@H](C)O)C(=O)N[C@@H](Cc1c[nH]c2ccccc12)C(N)=O [Compound No. 873, des(1)-Ac-[D-Tyr2,Hyp3,Thr5,Phe(3Me)6,Arg(Me)9,Trp10]MS10] (Ac-[dY][Hyp]NT[Phe(3-Me)]GL[Arg(Me)]W-NH2)
0.9	CNC(=N)NCCC[C@H](NC(=O)[C@H](CC(C)C)NC(=O)CNC(=O)[C@H](Cc1ccc(C)cc1)NC(=O)[C@@H](NC(=O)[C@H](CC(N)=O)NC(=O)[C@@H]1C[C@@H](O)CN1C(=O)[C@@H](Cc1ccc(O)cc1)NC(C)=O)[C@@H](C)O)C(=O)N[C@@H](Cc1c[nH]c2ccccc12)C(N)=O [Compound No. 875, des(1)-Ac-[D-Tyr2,Hyp3,Thr5,Phe(4Me)6,Arg(Me)9,Trp10]MS10] (Ac-[dY][Hyp]NT[Phe(4-Me)]GL[Arg(Me)]W-NH2)
0.5	CNC(=N)NCCC[C@H](NC(=O)[C@H](CC(C)C)NC(=O)CNC(=O)[C@H](Cc1ccccc1)NC(=O)[C@@H](NC(=O)[C@H](CNC(N)=O)NC(=O)[C@@H]1C[C@@H](O)CN1C(=O)[C@@H](Cc1ccc(O)cc1)NC(C)=O)[C@@H](C)O)C(=O)N[C@@H](Cc1c[nH]c2ccccc12)C(N)=O [Compound No. 885, des(1)-Ac-[D-Tyr2,Hyp3,Alb4,Thr5,Arg(Me)9,Trp10]MS10] (Ac-[dY][Hyp][Dap(CONH2)]TFGL[Arg(Me)]W-NH2)
0.6	CNC(=N)NCCC[C@H](NC(=O)[C@@H](/C=C/CNC(=O)[C@H](Cc1ccccc1)NC(=O)[C@@H](NC(=O)[C@H](CC(N)=O)NC(=O)[C@@H]1C[C@@H](O)CN1C(=O)[C@@H](Cc1ccc(O)cc1)NC(C)=O)[C@@H](C)O)CC(C)C)C(=O)N[C@@H](Cc1c[nH]c2ccccc12)C(N)=O [Compound No. 892, des(1)-Ac-[D-Tyr2,Hyp3,Thr5,Gly7Ψ((E)CH═CH)Leu8,Arg[(Me)9,Trp10]MS10] (Ac-[dY][Hyp]NTF[Glyψ(E-CHCH)Leu][Arg(Me)]W-NH2)

— US7786083B2, “Metastin derivatives and use thereof” (Takeda Pharmaceutical Company Limited, priority 2006, dated 2010)
